These are literature values, as cited in patent publication US10273264B2, “Cortistatin analogues and syntheses and uses thereof” (President and Fellows of Harvard College, priority 2015, dated 2019).

One data set deals with PMF. The settings on record: as described in PCT/US2014/72365.
Data set [1] deals with beta-catenin activated transcription. The settings on record: reporter gene assay; as described in PCT/US2014/72365.
For data set [2], the system named is Wnt/beta-catenin target genes in AML cells. The following applies: as described in PCT/US2014/72365.
A further data set relates to AML. The settings on record: in vivo; as described in PCT/US2014/72365.
In data set [3] the test system is cell lines derived from patients with MPNs. The settings on record: as described in PCT/US2014/72365.
The test system of a further data set is STAT1 phosphorylation. The settings on record: as described in PCT/US2014/72365.
Another data set has as its target CDK19 (Homo sapiens, UniProt Q9BWU1). The settings on record: reported, Cee et al. and US 20120071477.
Another data set deals with AML cell lines. The following applies: in vitro; as described in PCT/US2014/72365.

Sequence of CDK19 (Q9BWU1 whole entry): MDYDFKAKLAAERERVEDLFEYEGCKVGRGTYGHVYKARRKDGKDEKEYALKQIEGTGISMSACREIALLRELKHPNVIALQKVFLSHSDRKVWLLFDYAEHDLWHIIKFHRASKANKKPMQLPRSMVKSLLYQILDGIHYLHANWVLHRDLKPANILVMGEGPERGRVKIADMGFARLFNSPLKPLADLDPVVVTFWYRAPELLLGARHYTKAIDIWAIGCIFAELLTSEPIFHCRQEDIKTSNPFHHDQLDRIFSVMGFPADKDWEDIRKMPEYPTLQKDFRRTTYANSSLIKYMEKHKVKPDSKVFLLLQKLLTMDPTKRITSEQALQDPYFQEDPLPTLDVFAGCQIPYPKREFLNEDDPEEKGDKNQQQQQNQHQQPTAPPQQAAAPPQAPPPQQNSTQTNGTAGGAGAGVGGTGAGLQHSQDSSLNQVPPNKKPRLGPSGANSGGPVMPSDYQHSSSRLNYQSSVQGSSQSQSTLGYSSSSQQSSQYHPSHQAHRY

As for cortistatin A, the “efficacy in an in vivo model of PMF” value in the data set with PMF is “efficacious”. The “inhibition of beta-catenin activated transcription” value in data set [1] was “inhibits”. Moreover, in data set [2], the “inhibition of expression of putative Wnt/beta-catenin target genes” value is “inhibits”. Further, the “inhibition of AML progression” value in the data set on AML is given as “inhibits”. Also, the “inhibition of proliferation of MPN patient-derived cell lines” value in data set [3] is “inhibits”. In the data set on STAT1 phosphorylation, the “inhibition of interferon-gamma-stimulated STAT1 phosphorylation” value is recorded as “inhibits”. Also, on CDK19, the “binding to CDK19” value was “bind”. The “inhibition of proliferation of AML cell lines” value with AML cell lines is “inhibit”.
